Data reported in article PMC12535076, “Neurotherapeutic effects of Vutiglabridin as a Paraoxonase-2 modulator in preclinical models of Parkinson’s disease” (Molecular Neurodegeneration, 2025).

Tests used:
MAO-B [1] = molecular target: T1, MAO-B (Homo sapiens, UniProt P27338); assay: HRP/Amplex red based MAO-B enzyme activity assay; assay type: biochemical; details: read-out: IC50, MAO-B assay, HRP/AR method
T1 sequence (P27338 1-520): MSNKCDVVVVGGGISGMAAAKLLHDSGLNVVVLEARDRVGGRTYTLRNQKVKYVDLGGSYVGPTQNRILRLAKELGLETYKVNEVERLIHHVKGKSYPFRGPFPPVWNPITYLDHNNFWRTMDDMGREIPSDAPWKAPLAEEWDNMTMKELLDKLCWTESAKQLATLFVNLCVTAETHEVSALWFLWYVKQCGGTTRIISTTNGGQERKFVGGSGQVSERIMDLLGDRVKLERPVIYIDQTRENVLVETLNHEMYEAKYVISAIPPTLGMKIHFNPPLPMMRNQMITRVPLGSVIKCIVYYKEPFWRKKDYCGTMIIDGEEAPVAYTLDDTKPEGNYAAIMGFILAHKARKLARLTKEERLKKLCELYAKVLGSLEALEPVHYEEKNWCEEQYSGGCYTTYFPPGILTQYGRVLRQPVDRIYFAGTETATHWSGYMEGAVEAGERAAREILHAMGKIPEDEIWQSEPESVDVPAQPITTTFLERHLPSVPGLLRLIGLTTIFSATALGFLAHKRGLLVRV
Protocol: MAO-A or MAO-B enzyme solutions were prepared by diluting 10 µL of a 2.5 mg/mL MAO-A or MAO-B stock into 10 mL of 50 mM sodium phosphate buffer (pH 7.4). A substrate assay mixture was then prepared by combining benzylamine (for MAO-B) or tyramine (for MAO-A) from a 100 mM stock (200 µL in 10 mL phosphate buffer, final concentration 1 mM) with 100 µL of a 20 mM AR reagent stock (final concentration 0.1 mM) and 100 µL of a 200 U/mL HRP stock (final concentration 1 U/mL) in 10 mL phosphate buffer. […] Next, 50 µL of the substrate assay mixture was added, and the reaction was carried out at 37 °C for 60 min. The production of resorufin was quantified by fluorescence measurement (excitation at 540 nm and emission at 580 nm).

[2] = tested on: SH-SY5Y human neuroblastoma cells; assay: Cell-based mitochondrial activity assays in MPP+-treated SH-SY5Y cells
Protocol: Human SH-SY5Y neuroblastoma cells (ATCC® (CRL-2266™; Manassas, VA, USA) were first cultured in Dulbecco’s Modified Eagle Medium (DMEM)/F12 supplemented with 10% fetal bovine serum (FBS), 100 U/mL penicillin, and 100 µg/mL streptomycin (complete media, CM) at 37 °C with 5% CO2. Cells (5 × 10^4 cells/well) then were cultured in 96-well plates for 24 h followed by incubation in serum-deficient media (SDM, culture media containing 0.5% FBS) for 16 h. […] The treated cells were harvested according to the purpose and analyzed.
A systemic cell-based mitochondrial function analysis system was established using SH-SY5Y cells in 96-well plates based on fluorescence detection methods as described previously. The assay system covers quantitative assays for methyl thiazyl tetrazolium-mitochondrial dehydrogenase activity (MTT), TMRE-based mitochondrial membrane potential (TMRE), ATP contents, and ROS of cells. Cells in black 96-well culture plate were incubated with 200 nM TMRE and 0.5 µM Hoechst 33,342 for 30 min at 37 °C in phenol red-free SDM, or with 1 µM CM-H2DCFDA or 5 µM MitoSOX and 0.5 µM Hoechst 33,342 for 1 h at 37 °C. Fluorescence intensities at 550 nm/580 nm for TMRE, at 510 nm/580 nm MitoSOX, or at 494 nm/522 nm for DCF-DA were normalized by Hoechst intensity at 355 nm/480 nm (Spectramax Gemini EM, Molecular Devices, Sunnyvale, CA, USA).
Endogenous OCR was measured in adherent SH-SY5Y cells using a Seahorse XF-24 Analyzer (Seahorse Bioscience, Billerica, MA, USA) following the manufacturer’s protocol with minor modifications. Briefly, OCR assays were performed using SH-SY5Y cells (5.0 × 10^3 cells/well) equilibrated in DMEM without sodium bicarbonate in XF-24 microplates. After measuring basal OCR for 3 min, oligomycin (1 µg/mL), carbonyl cyanide-p-trifluoromethoxyphenylhydrazone (FCCP) (0.3 µM), and rotenone (0.1 µM) were consecutively added into each well to reach their final working concentrations. The OCR was calculated from 3-min measurement cycles and normalized to cell number.

MAO-B [3] = molecular target: T1, MAO-B; assay: ROS Glo based MAO-B enzyme activity assay; assay type: biochemical; details: read-out: IC50, MAO-B assay, ROS-Glo method
Protocol: An enzyme solution was prepared by diluting 10 µL of a 2.5 mg/mL MAO-A or MAO-B stock in 10 mL of 50 mM sodium phosphate buffer (pH 7.4). A substrate solution was prepared by diluting 200 µL of a 100 mM benzylamine (or tyramine) stock in 10 mL phosphate buffer to achieve a final concentration of 1 mM. For each 96-well plate experiment, 12.5 µL of a 1× H2O2 probe solution was added to 1 mL of the probe dilution buffer from the ROS Glo™ kit. Separately, 40 µL of cysteine and enhancer were diluted into 4 mL of Luciferin solution. In each well, 49 µL of the enzyme solution was dispensed, followed by 1 µL of the test compound, and incubated for 30 min. […] Next, 10 µL of the H2O2 probe solution was added and incubated for 15 min. […] Luminescence was subsequently recorded using a microplate luminescence reader (SpectraMax i3, Molecular Devices).

## CCOc1ccc(C2COc3c(ccc4c3CCC(C)(C)O4)C2)c(O)c1 (stereo not drawn) [Vuti, Vutiglabridin]
MAO-B [1]
  IC50: 425 µM
[2]; 1 mM MPP+ 20 h, then Vuti 1~100 nM 24 h, Seahorse XF-24
  MPP+-induced reduction in OCR (basal respiration, ATP turnover rate, maximum respiratory capacity): dose-dependently and significantly rescued
[2]; 1 mM MPP+ 24 h, then Vuti 0~1 µM 24 h
  MPP+-induced mitochondrial damage (NADH dehydrogenase complex 1 activity, ATP content, DCF-DA ROS, MitoSOX superoxide): significantly reversed
[2]; 1 mM MPP+, post-treatment with Vuti
  ATP production rates through glycolysis (GlycoATP) and mitochondria (mitoATP): normalized
[2]; SH-SY5Y, 1 mM MPP+
  concentration at which significant restoration of MPP+-induced damage was observed: 1 nM
MAO-B [3]
  IC50: 58.3 µM
